Literature values, collected in patent US20250281392A1, “TOPICAL DELIVERY OF EPINEPHRINE AND PRODRUG COMPOSITIONS” (Aquestive Therapeutics, Inc., priority 2024, published 2025).

Settings: cited from earlier work

## CCOCCOCCO [Diethylene glycol monoethyl ether]
  Log P (octanol:water): −0.43
